Test results reported in patent US20250283073A1 (ORNA THERAPEUTICS, INC., priority 2021, published 2025).

tested on: primary human skeletal myotubes (MYOs); experiment: IRES screening (Table 28), Gaussia luciferase LNP-oRNA in primary human skeletal myotubes (MYOs); conditions: protein expression relative to positive control (SEQ ID NO 3282 = 1)
Description: (§1) Exemplary constructs included a 5′ enhanced intron element, a 5′ enhanced exon element, a putative IRES, a coding element encoding Gaussia Luciferase, a 3′ enhanced exon element, and a 3′ enhanced intron element.
(§2) Purified oRNA was nanoprecipitated with lipids to form LNP-oRNA constructs. LNPs were formulated first by creating empty lipid nanoparticles using a Precision Nanosystems Ignite instrument with a “NextGen” mixing chamber. Ethanol phase contained Lipid 39 from Table 10b, DSPC, cholesterol, and DMG-PEG 2000 (Avanti Polar Lipids, Inc., Alabaster, AL) at a molar ratio of 45:9:44:2 was combined with 50 mM sodium acetate buffer at pH 4.5. A 3:1 aqueous to ethanol mixing ratio was used. The empty LNPs were then dialyzed in 1 L of 1×PBS and exchanged 2 times over 18 hours. […] A 3:1 aqueous to empty lipid nanoparticle mixing ratio was used. The LNPs final ionizable lipid to RNA phosphate ratio was at 6.0.
(§3) Primary human skeletal myotubes (MYOs), primary human hepatocytes (PHHs), and activated primary human T cells (TCLs) were treated with formulated LNP-oRNA in triplicate. Protein expression in supernatant was assessed by luminescence measurements 48 hours following transfection.
(§4) Total luminescent signal was normalized across replicate plates to control for plate-wide differences between replicates due to flash assay readout timing. Plates with positive controls having <2× signal over background were excluded from analysis. Background was subtracted based on empty wells. Each test well replicate was normalized to its respective plate control and then the replicates were averaged.
(§5) Measured numbers are normalized to a control (caprine kobuvirus IRES, SEQ ID NO: 3282) and represented as a fold change.

Going from `CCCCCCCCC(CCCCCC)COC(=O)CCCCCCCCCN(CCCCO)CCCCCCCCCC(=O)OCC(CCCCCC)CCCCCCCC` (stereo not drawn) [Lipid 21] to `CCCCCCCCC(CCCCCC)C(=O)OCCCCCCCCCN(CCCCO)CCCCCCCCCOC(=O)C(CCCCCC)CCCCCCCC` (stereo not drawn) [Lipid 22], the “MYO AVG [Fold Change]” value falls from 0.02126 Fold Change to 0.009137 Fold Change.

Compared with `CCCCCCCCC(CCCCCC)C(=O)OCCCCCCCCCCCCN(CCCCO)CCCCCCCCCCCCOC(=O)C(CCCCCC)CCCCCCCC` (stereo not drawn) [Lipid 23], `CCCCCCCCCCCCC(CCCCCCCCCC)C(=O)OCCCCCCN(CCCCO)CCCCCCOC(=O)C(CCCCCCCCCC)CCCCCCCCCCCC` (stereo not drawn) [Lipid 27] is higher in “MYO AVG [Fold Change]” value: 0 Fold Change for the first, 0.01866 Fold Change for the second.

Compared with `CCCCC(CC)C(=O)OCCCCCCCCCN(CCCCO)CCCCCCCCCOC(=O)C(CC)CCCC` (stereo not drawn) [Lipid 24], `CCCCCCC(CCCC)C(=O)OCCCCCCN(CCCO)CCCCCCOC(=O)C(CCCC)CCCCCC` (stereo not drawn) [Lipid 28] is higher in “MYO AVG [Fold Change]” value: 0 Fold Change for the first, 0.01764 Fold Change for the second.

Going from `CCCCCCC(CCCC)C(=O)OCCCCCCCCCN(CCCCO)CCCCCCCCCOC(=O)C(CCCC)CCCCCC` (stereo not drawn) [Lipid 25] to `CCCCCCCCC(CCCCCC)C(=O)OCCCCCCN(CCCC#N)CCCCCCOC(=O)C(CCCCCC)CCCCCCCC` (stereo not drawn) [Lipid 35], the “MYO AVG [Fold Change]” value falls from 0.0738 Fold Change to 0 Fold Change.

Compared with `CCCCCCCCCCC(CCCCCCCC)C(=O)OCCCCCCN(CCCCO)CCCCCCOC(=O)C(CCCCCCCC)CCCCCCCCCC` (stereo not drawn) [Lipid 26], `CCCCCCCCCCCCCCCC(O)C(CO)N(CCCCCCOC(=O)C(CCCCCC)CCCCCCCC)CCCCCCOC(=O)C(CCCCCC)CCCCCCCC` (stereo not drawn) [Lipid 32] is higher in “MYO AVG [Fold Change]” value: 0.002759 Fold Change for the first, 0.2163 Fold Change for the second.

Compared with `CCCCCCC(CCCC)C(=O)OCCCCCCN(CCO)CCCCCCOC(=O)C(CCCC)CCCCCC` (stereo not drawn) [Lipid 29], `CCCCCCCCC(CCCCCC)C(=O)OCCCCCCN(CCCCCCOC(=O)C(CCCCCC)CCCCCCCC)CC(O)CO` (stereo not drawn) [Lipid 30] is higher in “MYO AVG [Fold Change]” value: 0 Fold Change for the first, 0.1967 Fold Change for the second.

Compared with `CCCCCCCCC(CCCCCC)C(=O)OCCCCCCN(CCCCCCOC(=O)C(CCCCCC)CCCCCCCC)C(CC)CO` (stereo not drawn) [Lipid 31], `CCCCCCCCC(CCCCCC)C(=O)OCCCCCCN(CCCCCCOC(=O)C(CCCCCC)CCCCCCCC)CCCC(=O)OCC` (stereo not drawn) [Lipid 34] is lower in “MYO AVG [Fold Change]” value: 0.5881 Fold Change for the first, 0.2168 Fold Change for the second.

For `CCCCCCCCC(CCCCCC)C(=O)OCCCCCCN(CCCCCCOC(=O)C(CCCCCC)CCCCCCCC)CCCCOC(C)=O` (stereo not drawn) [Lipid 33], the “MYO AVG [Fold Change]” value was 0.3574 Fold Change.

tested on: activated primary human T cells (TCLs); experiment: IRES screening (Table 28), Gaussia luciferase LNP-oRNA in activated primary human T cells (TCLs); conditions: protein expression relative to positive control (SEQ ID NO 3282 = 1)
Description: as §1, §2, §3, §4, §5

First: CCCCCCCCC(CCCCCC)COC(=O)CCCCCCCCCN(CCCCO)CCCCCCCCCC(=O)OCC(CCCCCC)CCCCCCCC (stereo not drawn) [Lipid 21]
Second: CCCCCCCCC(CCCCCC)C(=O)OCCCCCCCCCN(CCCCO)CCCCCCCCCOC(=O)C(CCCCCC)CCCCCCCC (stereo not drawn) [Lipid 22]
The “TCL AVG [Fold Change]” value of the first is higher: 0.0748 Fold Change for the first, 0.0309 Fold Change for the second.

Compared with `CCCCCCCCC(CCCCCC)C(=O)OCCCCCCCCCCCCN(CCCCO)CCCCCCCCCCCCOC(=O)C(CCCCCC)CCCCCCCC` (stereo not drawn) [Lipid 23], `CCCCCCCCCCCCC(CCCCCCCCCC)C(=O)OCCCCCCN(CCCCO)CCCCCCOC(=O)C(CCCCCCCCCC)CCCCCCCCCCCC` (stereo not drawn) [Lipid 27] is higher in “TCL AVG [Fold Change]” value: 0.002417 Fold Change for the first, 0.02442 Fold Change for the second.

Going from `CCCCC(CC)C(=O)OCCCCCCCCCN(CCCCO)CCCCCCCCCOC(=O)C(CC)CCCC` (stereo not drawn) [Lipid 24] to `CCCCCCC(CCCC)C(=O)OCCCCCCN(CCCO)CCCCCCOC(=O)C(CCCC)CCCCCC` (stereo not drawn) [Lipid 28], the “TCL AVG [Fold Change]” value rises from 0.003111 Fold Change to 0.1126 Fold Change.

Going from `CCCCCCC(CCCC)C(=O)OCCCCCCCCCN(CCCCO)CCCCCCCCCOC(=O)C(CCCC)CCCCCC` (stereo not drawn) [Lipid 25] to `CCCCCCCCC(CCCCCC)C(=O)OCCCCCCN(CCCC#N)CCCCCCOC(=O)C(CCCCCC)CCCCCCCC` (stereo not drawn) [Lipid 35], the “TCL AVG [Fold Change]” value falls from 0.452 Fold Change to 0.004133 Fold Change.

Compared with `CCCCCCCCCCC(CCCCCCCC)C(=O)OCCCCCCN(CCCCO)CCCCCCOC(=O)C(CCCCCCCC)CCCCCCCCCC` (stereo not drawn) [Lipid 26], `CCCCCCCCCCCCCCCC(O)C(CO)N(CCCCCCOC(=O)C(CCCCCC)CCCCCCCC)CCCCCCOC(=O)C(CCCCCC)CCCCCCCC` (stereo not drawn) [Lipid 32] is higher in “TCL AVG [Fold Change]” value: 0 Fold Change for the first, 0.02974 Fold Change for the second.

Compared with `CCCCCCC(CCCC)C(=O)OCCCCCCN(CCO)CCCCCCOC(=O)C(CCCC)CCCCCC` (stereo not drawn) [Lipid 29], `CCCCCCCCC(CCCCCC)C(=O)OCCCCCCN(CCCCCCOC(=O)C(CCCCCC)CCCCCCCC)CC(O)CO` (stereo not drawn) [Lipid 30] is higher in “TCL AVG [Fold Change]” value: 0.01096 Fold Change for the first, 0.373 Fold Change for the second.

First: CCCCCCCCC(CCCCCC)C(=O)OCCCCCCN(CCCCCCOC(=O)C(CCCCCC)CCCCCCCC)C(CC)CO (stereo not drawn) [Lipid 31]
Second: CCCCCCCCC(CCCCCC)C(=O)OCCCCCCN(CCCCCCOC(=O)C(CCCCCC)CCCCCCCC)CCCC(=O)OCC (stereo not drawn) [Lipid 34]
The “TCL AVG [Fold Change]” value of the first is higher: 0.4863 Fold Change for the first, 0.2638 Fold Change for the second.

With `CCCCCCCCC(CCCCCC)C(=O)OCCCCCCN(CCCCCCOC(=O)C(CCCCCC)CCCCCCCC)CCCCOC(C)=O` (stereo not drawn) [Lipid 33] the “TCL AVG [Fold Change]” value was 0.2088 Fold Change.

tested on: primary human hepatocytes (PHHs); experiment: IRES screening (Table 28), Gaussia luciferase LNP-oRNA in primary human hepatocytes (PHHs); conditions: protein expression relative to positive control (SEQ ID NO 3282 = 1)
Description: as §1, §2, §3, §4, §5

Compared with `CCCCCCCCC(CCCCCC)COC(=O)CCCCCCCCCN(CCCCO)CCCCCCCCCC(=O)OCC(CCCCCC)CCCCCCCC` (stereo not drawn) [Lipid 21], `CCCCCCCCC(CCCCCC)C(=O)OCCCCCCCCCN(CCCCO)CCCCCCCCCOC(=O)C(CCCCCC)CCCCCCCC` (stereo not drawn) [Lipid 22] is lower in “PHH AVG [Fold Change]” value: 0.1363 Fold Change for the first, 0.0926 Fold Change for the second.

First: CCCCCCCCC(CCCCCC)C(=O)OCCCCCCCCCCCCN(CCCCO)CCCCCCCCCCCCOC(=O)C(CCCCCC)CCCCCCCC (stereo not drawn) [Lipid 23]
Second: CCCCCCCCCCCCC(CCCCCCCCCC)C(=O)OCCCCCCN(CCCCO)CCCCCCOC(=O)C(CCCCCCCCCC)CCCCCCCCCCCC (stereo not drawn) [Lipid 27]
The “PHH AVG [Fold Change]” value of the first is lower: 0.0008387 Fold Change for the first, 0.09892 Fold Change for the second.

First: CCCCC(CC)C(=O)OCCCCCCCCCN(CCCCO)CCCCCCCCCOC(=O)C(CC)CCCC (stereo not drawn) [Lipid 24]
Second: CCCCCCC(CCCC)C(=O)OCCCCCCN(CCCO)CCCCCCOC(=O)C(CCCC)CCCCCC (stereo not drawn) [Lipid 28]
The “PHH AVG [Fold Change]” value of the first is lower: 0.0000246 Fold Change for the first, 0.1221 Fold Change for the second.

Compared with `CCCCCCC(CCCC)C(=O)OCCCCCCCCCN(CCCCO)CCCCCCCCCOC(=O)C(CCCC)CCCCCC` (stereo not drawn) [Lipid 25], `CCCCCCCCC(CCCCCC)C(=O)OCCCCCCN(CCCC#N)CCCCCCOC(=O)C(CCCCCC)CCCCCCCC` (stereo not drawn) [Lipid 35] is lower in “PHH AVG [Fold Change]” value: 0.1559 Fold Change for the first, 0.005378 Fold Change for the second.

First: CCCCCCCCCCC(CCCCCCCC)C(=O)OCCCCCCN(CCCCO)CCCCCCOC(=O)C(CCCCCCCC)CCCCCCCCCC (stereo not drawn) [Lipid 26]
Second: CCCCCCCCCCCCCCCC(O)C(CO)N(CCCCCCOC(=O)C(CCCCCC)CCCCCCCC)CCCCCCOC(=O)C(CCCCCC)CCCCCCCC (stereo not drawn) [Lipid 32]
The “PHH AVG [Fold Change]” value of the first is lower: 0.01252 Fold Change for the first, 0.3276 Fold Change for the second.

Going from `CCCCCCC(CCCC)C(=O)OCCCCCCN(CCO)CCCCCCOC(=O)C(CCCC)CCCCCC` (stereo not drawn) [Lipid 29] to `CCCCCCCCC(CCCCCC)C(=O)OCCCCCCN(CCCCCCOC(=O)C(CCCCCC)CCCCCCCC)CC(O)CO` (stereo not drawn) [Lipid 30], the “PHH AVG [Fold Change]” value rises from 0.008274 Fold Change to 0.3984 Fold Change.

Compared with `CCCCCCCCC(CCCCCC)C(=O)OCCCCCCN(CCCCCCOC(=O)C(CCCCCC)CCCCCCCC)C(CC)CO` (stereo not drawn) [Lipid 31], `CCCCCCCCC(CCCCCC)C(=O)OCCCCCCN(CCCCCCOC(=O)C(CCCCCC)CCCCCCCC)CCCC(=O)OCC` (stereo not drawn) [Lipid 34] is lower in “PHH AVG [Fold Change]” value: 0.6943 Fold Change for the first, 0.4644 Fold Change for the second.

For `CCCCCCCCC(CCCCCC)C(=O)OCCCCCCN(CCCCCCOC(=O)C(CCCCCC)CCCCCCCC)CCCCOC(C)=O` (stereo not drawn) [Lipid 33], the “PHH AVG [Fold Change]” value was 0.4409 Fold Change.
